As usually defined, the IC50 is the concentration that inhibits the measured activity by half.

Read-outs that look alike come from different tables or passages of the source.

Experimental findings from US11279712B2, “Macrocyclic compounds that inhibit MCL-1 protein” (AMGEN INC., priority 2017, dated 2022) are described below.

Experiment [1] deals with Mcl-1/Bim interaction (recombinant human Mcl-1 residues 171-327) (Homo sapiens (Human), UniProt Q07820). Kind of experiment: Cell Free Mcl-1:Bim Affinity Assay (Mcl-1 HTRF). It counts as binding. The settings on record: TR-FRET, 0.1 nM Mcl-1(171-327), 0.05 nM biotin-Bim(51-76). The procedure: Cell Free Mcl-1:Bim Affinity Assay (Mcl-1 HTRF)
Mcl-1/Bim interaction (recombinant human Mcl-1 residues 171-327), sequence (Q07820 171-327): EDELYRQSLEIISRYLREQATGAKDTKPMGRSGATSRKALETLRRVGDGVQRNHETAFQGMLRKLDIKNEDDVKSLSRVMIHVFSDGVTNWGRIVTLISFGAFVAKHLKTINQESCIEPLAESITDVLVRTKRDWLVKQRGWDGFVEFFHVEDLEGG
The inhibition of the Mcl-1/Bim interaction was measured using a time-resolved fluorescence resonance energy transfer (TR-FRET) assay. The recombinant human Mcl-1 (C-terminally 6×His tagged Mcl-1 containing residues 171-327) was generated at Amgen Inc (Thousand Oaks, Calif.). A biotinylated peptide derived from human Bim (residues 51-76) was purchased from CPC Scientific (San Jose, Calif.). The TR-FRET assay was conducted in a 384-well white OptiPlate™ (PerkinElmer, Waltham, Mass.) in a total volume of 40 μL. The reaction mixture contained 0.1 nM Mcl-1(171-327), 0.05 nM biotin-Bim(51-76), 0.05 nM LANCES Eu-W1024 Anti-6×His (PerkinElmer), 0.072 nM Streptavidin-Xlent (Cisbio, Bedford, Mass.), and serially diluted test compounds in the binding buffer of 20 mM Hepes, pH 7.5, 150 mM NaCl, 0.016 mM Brij®35, and 1 mM dithiothreitol. Test compounds were pre-incubated with Mcl-1(171-327) and biotin-Bim (51-76) for 60 min before addition of the detection mixture (LANCE® Eu-W1024 Anti-6×His and Streptavidin-Xlent). The reaction plates were further incubated overnight and then were read on an Envision® multimode reader (PerkinElmer). Fluorescence signals were measured at 620 nm (40-nm bandwidth) and 665 nm (7.5-nm bandwidth) with a 60 μs delay after excitation at 320 nm (75-nm bandwidth). The signal ratio at 665/620 nm corresponded to the Mcl-1/Bim interaction and was used in all data analyses. The IC50 values of test compounds were determined from duplicate data by analyzing competition curves using a four-parameter sigmoidal model in GraphPad Prism (GraphPad Software, San Diego, Calif.) or in Genedata Screener® (Genedata, Basel, Switzerland).
In general terms: TR-FRET usually uses a lanthanide donor and a delayed reading to cut background.

The test system of experiment [2] is OPM-2 human multiple myeloma cell line. Kind of experiment: Cell Viability Assay (OPM-2 10 FBS). In kind it is cell-based. The note with it: OPM-2 cells, CellTiter-Glo, read-out: OPM-2 10% FBS IC50 IP. On the procedure:
Cell Viability Assay (OPM-2 10 FBS)
The human multiple myeloma cell line, OPM-2, was cultured in complete growth medium containing RPMI 1640 and 10% fetal bovine serum (FBS). Cells were seeded into 384-well plates at 3000 cells/well density in complete growth medium containing 10% FBS, and incubated for 16 h with serially diluted test compounds in a 37° C. incubator with 5% CO2. Cell viability was tested using CellTiter-Glo® assay (Promega, Madison, Wis.) according to the manufacturer recommendations. Luminescence was determined using an EnVision® Multilabel plate reader 25 min after the addition of detection reagent. IC50 values were then calculated with Xlfit using a logistical 4-parameter fit model in GraphPad Prism (GraphPad Software, San Diego, Calif.) or in Genedata Screener® (Genedata, Basel, Switzerland).

On to `C[C@@H]1[C@@H](C)C/C=C/[C@H](CN2CCN3CCOC[C@@H]3C2)[C@@H]2CC[C@H]2CN2C[C@@]3(CCCc4cc(Cl)ccc43)COc3ccc(cc32)C(=O)NS1(=O)=O` (single isomer, unassigned) [Example 37], for which the IC50 in experiment [1] worked out at 0.000288 µM; in experiment [2] (Homo sapiens, OPM-2, 16 h) it was 0.451 µM.
The corresponding values for `C[C@@H]1[C@@H](C)CCC[C@H](C(=O)N2CC(F)(F)C2)[C@@H]2CC[C@H]2CN2C[C@@]3(CCCc4cc(Cl)ccc43)COc3ccc(cc32)C(=O)NS1(=O)=O` (single isomer, unassigned) [Example 38] are 0.000517 µM and 0.525 µM.
Consider `COCCN1CCN(C[C@H]2CCC[C@H](C)[C@@H](C)S(=O)(=O)NC(=O)c3ccc4c(c3)N(C[C@@H]3CC[C@@H]23)C[C@@]2(CCCc3cc(Cl)ccc32)CO4)CC1` (single isomer, unassigned) [Example 39], for which the results for the IC50 in experiment [1] and in experiment [2] (16 h) were 0.000829 µM and 0.535 µM, respectively.
For `C[C@@H]1[C@@H](C)CCC[C@H]([C@@H](C)O)[C@@H]2CC[C@H]2CN2C[C@@]3(CCCc4cc(Cl)ccc43)COc3ccc(cc32)C(=O)NS1(=O)=O` (single isomer, unassigned) [Example 40], in that order: 0.000822 µM and 0.564 µM.
For `C[C@@H]1[C@@H](C)CCC[C@H](CS(C)(=O)=O)[C@@H]2CC[C@H]2CN2C[C@@]3(CCCc4cc(Cl)ccc43)COc3ccc(cc32)C(=O)NS1(=O)=O` (single isomer, unassigned) [Example 41], in that order: 0.000284 µM and 0.567 µM.
Consider `C[C@@H]1CS(=O)(=O)NC(=O)c2ccc3c(c2)N(C[C@@H]2CC[C@H]2[C@@H](CO)CC[C@@H]1C)C[C@@]1(CCCc2cc(Cl)ccc21)CO3` (single isomer, unassigned) [Example 43], for which the figures for the IC50 in experiment [1] and in experiment [2] (16 h) were 0.000268 µM and 0.599 µM, respectively.
For `C[C@@H]1[C@@H](C)CCC[C@@H](CS(C)(=O)=O)[C@@H]2CC[C@H]2CN2C[C@@]3(CCCc4cc(Cl)ccc43)COc3ccc(cc32)C(=O)NS1(=O)=O` (single isomer, unassigned) [Example 44], in that order: 0.000502 µM and 0.617 µM.
For `CC(=O)[C@@H]1CCC[C@H](C)[C@@H](C)S(=O)(=O)NC(=O)c2ccc3c(c2)N(C[C@@H]2CC[C@H]21)C[C@@]1(CCCc2cc(Cl)ccc21)CO3` (single isomer, unassigned) [Example 45], in that order: 0.000338 µM and 0.675 µM.
`C[C@@H]1[C@@H](C)CCC[C@H](CN2CCOCC2)[C@@H]2CC[C@H]2CN2C[C@@]3(CCCc4cc(Cl)ccc43)COc3ccc(cc32)C(=O)NS1(=O)=O` (single isomer, unassigned) [Example 46]: the figures for the IC50 in experiment [1] and in experiment [2] (16 h) were 0.000743 µM and 0.724 µM, respectively.
Regarding `C[C@@H]1[C@@H](C)CCC[C@@H]([C@@H](O)C(F)(F)F)[C@@H]2CC[C@H]2CN2C[C@@]3(CCCc4cc(Cl)ccc43)COc3ccc(cc32)C(=O)NS1(=O)=O` (single isomer, unassigned) [Example 47], the IC50 is 0.00161 µM in experiment [1] and 0.756 µM in experiment [2] (16 h).
`CC(=O)N1CCN2CCN(C[C@H]3CCC[C@H](C)[C@@H](C)S(=O)(=O)NC(=O)c4ccc5c(c4)N(C[C@@H]4CC[C@@H]34)C[C@@]3(CCCc4cc(Cl)ccc43)CO5)C[C@H]2C1` (single isomer, unassigned) [Example 48]: the IC50 in experiment [1] was found to be 0.000329 µM; in experiment [2] (16 h), 0.768 µM.
The corresponding values for `CC[C@@H](O)[C@@H]1/C=C/C[C@H](C)[C@@H](C)S(=O)(=O)NC(=O)c2ccc3c(c2)N(C[C@@H]2CC[C@H]21)C[C@@]1(CCCc2cc(Cl)ccc21)CO3` (single isomer, unassigned) [Example 49] are 0.000377 µM and 0.778 µM.
For the compound `C[C@@H]1[C@@H](C)CCC[C@H](CN2CC3(CCCN3C)C2)[C@@H]2CC[C@H]2CN2C[C@@]3(CCCc4cc(Cl)ccc43)COc3ccc(cc32)C(=O)NS1(=O)=O` (single isomer, unassigned) [Example 50], the values for the IC50 in experiment [1] and in experiment [2] (16 h) were 0.000923 µM and 0.785 µM, respectively.
Take `C[C@H]1CCC[C@H](CO)[C@@H]2CC[C@H]2CN2C[C@@]3(CCCc4cc(Cl)ccc43)COc3ccc(cc32)C(=O)NS(=O)(=O)C1` (single isomer, unassigned) [Example 51]: the figures for the IC50 in experiment [1] and in experiment [2] (16 h) were 0.000222 µM and 0.936 µM, respectively.
For `C[C@@H]1[C@@H](C)CCC[C@H](C(=O)O)[C@@H]2CC[C@H]2CN2C[C@@]3(CCCc4cc(Cl)ccc43)COc3ccc(cc32)C(=O)NS1(=O)=O` (single isomer, unassigned) [Example 52], in that order: 0.000107 µM and 0.939 µM.
As to `CC[C@@H](O)[C@H]1/C=C/C[C@H](C)[C@@H](C)S(=O)(=O)NC(=O)c2ccc3c(c2)N(C[C@@H]2CC[C@H]21)C[C@@]1(CCCc2cc(Cl)ccc21)CO3` (single isomer, unassigned) [Example 54], the values for the IC50 in experiment [1] and in experiment [2] (16 h) were 0.000624 µM and 0.989 µM, respectively.
For `C[C@@H]1[C@@H](C)CCC[C@H](CN2CCN3CCN(C)C[C@@H]3C2)[C@@H]2CC[C@H]2CN2C[C@@]3(CCCc4cc(Cl)ccc43)COc3ccc(cc32)C(=O)NS1(=O)=O` (single isomer, unassigned) [Example 56], in that order: 0.00052 µM and 1.03 µM.
As for `COCCNC(=O)[C@@H]1CCC[C@H](C)[C@@H](C)S(=O)(=O)NC(=O)c2ccc3c(c2)N(C[C@@H]2CC[C@H]21)C[C@@]1(CCCc2cc(Cl)ccc21)CO3` (single isomer, unassigned) [Example 57], the IC50 in experiment [1] was determined as 0.000604 µM; in experiment [2] (Homo sapiens, OPM-2, 16 h) it was 1.17 µM.
`C[C@@H]1[C@@H](C)CCC[C@H]([C@@H](C)O)[C@@H]2CC[C@H]2CN2C[C@@]3(CCCc4cc(Cl)ccc43)COc3ccc(cc32)C(=O)NS1(=O)=O` (single isomer, unassigned) [Example 58]: the IC50 in experiment [1] stood at 0.000995 µM; in experiment [2] (16 h), 1.23 µM.
Regarding `COCC[C@@H]1[C@@H](C)CCC[C@H](CO)[C@@H]2CC[C@H]2CN2C[C@@]3(CCCc4cc(Cl)ccc43)COc3ccc(cc32)C(=O)NS1(=O)=O` (single isomer, unassigned) [Example 59], the IC50 stood at 0.000921 µM in experiment [1] and 1.32 µM in experiment [2] (16 h).
For `CC[C@H](O)[C@H]1/C=C/C[C@H](C)[C@@H](C)S(=O)(=O)NC(=O)c2ccc3c(c2)N(C[C@@H]2CC[C@H]21)C[C@@]1(CCCc2cc(Cl)ccc21)CO3` (single isomer, unassigned) [Example 61], in that order: 0.000281 µM and 1.41 µM.
The corresponding values for `C[C@@H]1[C@@H](C)CCC[C@H](CO)[C@@H]2CC[C@H]2CN2C[C@@]3(CCCc4cc(Cl)ccc43)COc3ccc(cc32)C(=O)NS1(=O)=O` (single isomer, unassigned) [Example 63] are 0.000997 µM and 1.46 µM.
The corresponding values for `C[C@@H]1[C@@H](C)CCC[C@@H]([C@H](O)C(F)(F)F)[C@@H]2CC[C@H]2CN2C[C@@]3(CCCc4cc(Cl)ccc43)COc3ccc(cc32)C(=O)NS1(=O)=O` (single isomer, unassigned) [Example 66] are 0.00729 µM and 1.6 µM.
Regarding `C[C@@H]1[C@@H](C)CCC[C@H](CN2CCOCC2)[C@@H]2CC[C@H]2CN2C[C@@]3(CCCc4cc(Cl)ccc43)COc3ccc(cc32)C(=O)NS1(=O)=O` (single isomer, unassigned) [Example 67], the IC50 was 0.00105 µM in experiment [1] and 1.67 µM in experiment [2] (16 h).
For `C[C@@H]1[C@@H](C)CCC[C@H]([C@H](O)C2CCN(C)CC2)[C@@H]2CC[C@H]2CN2C[C@@]3(CCCc4cc(Cl)ccc43)COc3ccc(cc32)C(=O)NS1(=O)=O` (single isomer, unassigned) [Example 68], in that order: 0.000938 µM and 1.67 µM.
For `C[C@H]([C@H]1CCC[C@H](C)[C@@H](C)S(=O)(=O)NC(=O)c2ccc3c(c2)N(C[C@@H]2CC[C@H]21)C[C@@]1(CCCc2cc(Cl)ccc21)CO3)N1CCOCC1` (single isomer, unassigned) [Example 70], in that order: 0.000843 µM and 1.86 µM.
